Measured values: US6319952A, “Compositions and methods for reversibly increasing permeability of biomembranes” (D-Pharm Ltd., priority 1997, dated 2001)

What was measured:
[1] = test system: blood-brain barrier (BBB); assay: Reversibility of effect of M 3/14 on BBB permeability (Evan's Blue absorbance of brain extract); type: in vivo, rat (male Sprague-Dawley); settings: for Quantity EB: 620 nm, per gram wet weight
Method: The experiments were carried out on male Sprague-Dawley rats weighing 250-320 gr. They were anesthetized with Rampun-Imalgen. The right common carotid artery was exposed.
The test compounds were dissolved in 0.1M phosphate buffered physiological saline (pH=7.4) at the following test concentrations: 1.6; 8; 20; 40; 200 and 1000 μg/ml. […] The resulting pH of the test solutions was in the range of 8.0 to 8.5, and contols for the pH effect were performed up to pH 9.
The test compound was infused into the right common carotid artery at a rate of 6 ml/min. for 30 s. The control rats were infused with buffer. Evan's Blue (EB) solution at a concentration of […] (2 g Evan's Blue, 0.9 g NaCl in 100 ml water) was injected intravenously 50 minutes prior to the termination of the experiment.
At the end of the experimental time period the animals were perfused with 100 ml of saline solution through the heart and decapitated. The degree of BBB opening, in terms of extravasation of Evan's Blue albumin, was graded on the basis of visual assessment of the degree of staining of the brain ato the method of Rapoport et al. (Rapoport et al., 1980, Amer. J. Physiol. 258, 421-431), and the results are presented in Tables 1 and 2.
A second set of experiments was designed to determine whether the BBB disruption is reversible or irreversible after M 3/14 injection. The extravasation of Evan's Blue-albumin was evaluated at different time points between 3 h and 72 h after M 3/14 injection in concentrations of 8 and 20 μg/ml.
The experiment was conducted on an average of three individual animals per dose per time point. The brains were removed and extracted in dimethylformamide for […]. at room temp. The extract was centrifuged and the supernatant collected and measured for absorbance at 620 nm. The results are presented per gram wet weight of the tissue.

mice = settings: mouse, in vivo
rodent brains = assay: Neurotoxicity by histopathology on fixed sectioned rodent brains; type: in vivo, rat; settings: 20 or 200 μg/ml via internal carotid artery, 3 or 72 hr post infusion
Method: Potential neurotoxicity after treatment with M 3,14 was assessed by means of histopathology on fixed sectioned rodent brains.
Nine rodent brains were fixed in 10% neutral buffered formalin. These brains were obtained from rats infused with either buffer, 20 μg/ml, or 200 μg/ml M3,14 via the left internal carotid artery. The experiment was terminated and the samples collected either 3 or 72 hr. post infusion. Specimen and group identification were as follows:
control: 3 hr (2), 72 hr (1);
Upon receipt, coronal sections were prepared through the forebrain, midbrain and hindbrain. The right-left orientation was identified by placing a small cut in the cortex on the right side of the section. The sections were embedded as a single block, processed routinely in paraffin, sectioned at five microns and stained with hematoxylin and eosin. Sections were evaluated qualitatively.

rats = settings: rat, in vivo
[2] = test system: bovine brain capillary endothelial cells in co-culture with astrocytes; assay: Paracellular permeability (inulin and sucrose clearance), in vitro coculture model of the BBB; type: cell-based
Text: The alterations in barrier function on bovine brain capillary endothelial cells in co-culture were investigated. To provide an "in vitro" system for studying brain capillary functions, a process of coculture was used that closely mimics the "in vivo" situation by culturing brain capillary endothelial cells on one side of a filter and astrocytes on the other (Dehouck, et al. (1992) J. Neurochemistry 58:1790-1797). Endothelial cells form a confluent monolayer in 12 days.
Endothelial cells are cultured in the upper compartment on the filter and astrocytes in the lower compartment on the plastic of the Petri dish.
Under these conditions, endothelial cells retain all the endothelial markers (factor VIII--related antigen, nonthrombogenic surface, production of prostacyclin, angiotensin converting enzyme activity) and the characteristics of the blood-brain barrier (presence of tight junctions, paucity of pinocytotic vesicles, monoamine oxidase activity, γ-glutamyltranspeptidase activity).
Two different time points were tested, namely 1 hr and 24 hrs of incubation with DP-BFA, and five different concentrations per time point: 0.04; 0.08; 0.16; 0.24; 0.32 mg/ml corresponding to 0.125; 0.25; 0.5; 0.75; 1×10^-3 M.
DP-BFA is stored in a hermetically sealed dark vial filled with Argon at 5° C. for up to 3 months. The drug quantity was taken out the vial cap with a Teflon spatula. The compound was dissolved in sodium carbonate-sodium bicarbonate buffered saline solution adjusted to pH 8.8-9 at 37° C. A stock solution (12.8 mg/ml) was prepared and kept at 37° C. for 15 minutes. The solution was protected from light by covering it with aluminium foil. […] The desired concentration of DP-BFA was obtained by diluting the stock solution with the buffer. The solutions were filtered through a […] filter. The DP-BFA solutions were kept at 37° C. in vials protected from light, for no more than 6 hours.
Stock solution of DP-BFA was added directly to the coculture medium (upper compartment) in order to obtain a dilution of 1:40.
Permeability studies were carried out on the monolayer of endothelial cells, using two paracellular tracers: inulin-^3 H and sucrose-^14C.
To obtain a concentration-dependent transport parameter, the clearance principle was used. For each time, the increment in cleared volume between successive sampling events was calculated by dividing the amount of transported solute by the donor chamber concentration. The total volume cleared at each point was calculated by summing the incremental cleared volumes up to the given time point: [formula]
where [C]L is the initial luminal tracer concentration, [C]A the abluminal tracer concentration, and VA the volume of the abluminal chamber. During the 45-mim experiment, the clearance volume increased linearly with time. The average volume cleared was plotted versus time, and the slope was estimated by linear regression analysis to give the mean and the SE to the estimate. The slope of the clearance curves for the coculture was denoted PSt, where PS is the permeability x surface area product (in microliters per minute). The slope of the clearance curve for the control filter was denoted PSf.
The PS value for the endothelial monolayer (PSe) was calculated from [formula]
The PSe values were divided by the surface area of the Millicell-PC (4.2 cm^2) to generate the endothelial permeability coefficient (Pe, in centimeters per minute).
In that case, the results are presented as clearance (μl) in function of time (min) and clearance at 45 minutes for each condition.

[3] = 0.08 mg/ml, 24 hours incubation

SMILES: CCCCCCCCCCCCCCC(CCC)C(=O)O (centres unmarked) [M 3/14, 2-propylhexadecanoic acid]
- Quantity EB ([1]; 8 μg/ml, 3 h): 0.087 absorbance units
- Quantity EB ([1]; 8 μg/ml, 24 h): 0.074 absorbance units
- Quantity EB ([1]; 20 μg/ml, 3 h): 0.129 absorbance units
- Quantity EB ([1]; 20 μg/ml, 24 h): 0.129 absorbance units
- Quantity EB ([1]; 20 μg/ml, 72 h): 0.015 absorbance units
- duration of effect on BBB permeability ([1]; depending on the dose used (8 and 20 μg/ml)): exceed 24 hours
- brain edema or general edema (mice): no brain edema or general edema was observed
- histopathology (neurotoxicity) (rodent brains; listed as M 3,14): no treatment related changes observed
- histopathology (neurotoxicity) (rodent brains; listed as M3,14): No treatment related changes were observed
- brain edema or general edema (rats): no brain edema or general edema was observed
- change of behavior (rats): No change of behavior was observed
- increase in permeability of the monolayer for inulin (clearance at 45 minutes) [2, 3]: 179%
- increase in permeability of the monolayer for sucrose (clearance at 45 minutes) [2, 3]: 199%
- paracellular breakdown (opening of the tight junctions) ([2]; 0.08 mg/ml, 24 hrs): paracellular breakdown (opening of the tight junctions)
- increase in permeability of the monolayer for inulin (clearance at 45 minutes) ([2]; 0.16 mg/ml, 1 hour incubation): 636%
- increase in permeability of the monolayer for sucrose (clearance at 45 minutes) ([2]; 0.16 mg/ml, 1 hour incubation): 679%
- paracellular breakdown (opening of the tight junctions) ([2]; 0.16 mg/ml, 1 hr): paracellular breakdown (opening of the tight junctions)
